Test results as given in patent US9745339B2 (GRAFFINITY PHARMACEUTICALS GMBH, priority 2012, dated 2017).

How the values were obtained:
[1] = tested on: Palivizumab; assay: Microtiter plate chromatography of resins: binding and elution of Palivizumab
Description: (§1) Resins were assessed in packed mode by microtiter plate chromatography. For each column, approximately 30 μl of resin were transferred to a 384-well filter plate and sealed with appropriate top fits. Columns with rProtein A SEPHAROSE 4 FF and MABSORBENT A2P HF were included as controls.
(§2) Either 3.3 cv of whole IgGs dissolved at 0.5 mg ml^−1 in PBS or undiluted host cell proteins (HCP) were injected onto columns.
(§3) Unbound protein was washed from columns with 5 cv of PBS prior to elution with 5 cv of glycine buffer at pH 2.5. […] During injection of samples, speed was reduced to 10 g and centrifugation time increased to 5-10 min. Effluent fractions were collected in 384-well plates and concentrations of protein were analyzed by Bradford assay. Protein masses mi, mft and me (see below) were calculated as the product of fraction volume and measured protein concentration.
(§4) The fraction of bound protein was calculated as the difference between the total mass of protein injected mi and the mass of protein detected in the flowthrough mft, divided by the total mass of protein injected.
(§5) The yield of protein was calculated as the mass of protein eluted me, divided by the mass of protein injected mi.
(§6) The fraction of bound protein and the yield of protein were calculated for each resin based on data for whole IgG-antibodies. In the case of host cell proteins, only the fraction of bound protein is given. Selectivity of resins was calculated from data for Bevacizumab whole IgG and host cell proteins. Due to limited experimental precision, selectivity was truncated for values beyond 10.

[2] = tested on: host cell proteins (HCP); assay: Microtiter plate chromatography of resins: binding of host cell proteins; parameters: species or system CHO cell culture
Description: Flowthrough from protein A chromatography (referred to as host cell proteins) was derived from the supernatant of antibody-producing CHO cell culture in serum-free medium. Coomassie brilliant blue dye reagent for Bradford assay was purchased from Thermo Scientific (Bonn/Germany).
as §1, §2, §3, §4, §6

[3] = tested on: Tocilizumab; assay: Microtiter plate chromatography of resins: binding and elution of Tocilizumab
Description: as §1, §2, §3, §4, §5, §6

[4] = tested on: Cetuximab; assay: Microtiter plate chromatography of resins: binding and elution of Cetuximab
Description: as §1, §2, §3, §4, §5, §6

[5] = molecular target: T1, Bevacizumab (Homo sapiens, UniProt P01857); assay: Microtiter plate chromatography of resins: binding and elution of Bevacizumab
T1 construct: 0.5 mg/ml IgG in PBS pH 7.3; ligand immobilized on SEPHAR; Bevacizumab Yield; other: mass eluted (glycine pH 2.5) / mass injected; kd (dissociation constant, Langmuir isotherm); other: Bevacizumab 0.05-5 mg/ml in PBS pH 7.3, 25° C., at least 3 h; qm (maximum capacity); other: mg Bevacizumab per ml of resin; Langmuir isotherm; t0; fused on or other part: Humanized anti-VEGF-A VH domain joined N-terminally to the IGHG1 constant region (engineered, no UniProt entry)
Description: as §1, §2, §3, §4, §5
(§7) The selectivity of resins was calculated as the fraction of bound Bevacizumab antibody BAb, divided by the fraction of bound host cell proteins BHCP.
as §6

[6] = tested on: Bevacizumab; assay: as above; details: fraction of bound Bevacizumab divided by fraction of bound HCP; truncated for values beyond 10
Description: as §1, §2, §3, §4, §5, §7, §6

[7] = tested on: poly-IgG from human serum (h-poly-IgG); assay: Microtiter plate chromatography of resins: binding and elution of human poly-IgG
Description: as §1, §2, §3, §4, §5, §6

[8] = molecular target: T1, Bevacizumab; assay: Langmuir isotherms by batch adsorption; type: binding; details: read-out: kd (dissociation constant, Langmuir isotherm); Bevacizumab 0.05-5 mg/ml in PBS pH 7.3, 25° C., at least 3 h
Description: Experiments were performed with Bevacizumab as antibody. Parameters of Langmuir isotherms for purified antibody were determined by batch adsorption experiments in 96-well microtiter plates. In each well, 10 μl of sorbent slurry (50% v/v) were mixed with 100 μl of protein solution. Initial concentrations varied from 0.05-5 mg/ml in phosphate-buffered saline (0.15 M NaCl, 20 mM phosphate buffer, pH 7.3; PBS). Reactions were agitated vigorously at 25° C. for at least 3 h. Afterwards, antibody concentration in the supernatants were measured by Bradford assay. Data was evaluated by direct fitting of the values with the Langmuir isotherm equation (1).
Parameters of Langmuir isotherms, i.e. dissociation constants Kd and maximum capacities qm, were determined from the measured concentrations in the supernatants. Parameters were estimated by numerical fitting of the model equation derived by Chase (1)

[9] = fraction of injected protein bound, 0.5 mg/ml IgG in PBS pH 7.3
[10] = fraction of injected undiluted host cell proteins bound
[11] = fraction of injected protein bound, 0.5 mg/ml IgG in PBS pH 7.3, ligand immobilized on SEPHAROSE 4 FF
[12] = mass eluted (glycine pH 2.5) / mass injected
[13] = L55-73: estimated values based on the knowledge obtained from L01-L54

SMILES	Palivizumab Bound [1, 9]	Tocilizumab Bound [3, 9]	Cetuximab Bound [4, 9]	Bevacizumab Bound [5, 11]	Bevacizumab Yield [5, 12]	Selectivity [6]	h-poly-IgG Bound [7, 9]	Kd [8]	h-poly-IgG Bound [7, 13]	Palivizumab Bound [1, 13]	Tocilizumab Bound [3, 13]	Cetuximab Bound [4, 13]	Bevacizumab Bound [5, 13]	Bevacizumab Yield [5, 13]	HCP Bound [2, 10]	HCP Bound [2, 13]
Cn1nc(C(=O)Nc2ccc3c(c2)C(=O)N(CCCN)CCO3)c2ccccc21 [Ligand L03, 4-(3-Amino-1-propyl)-7-[(1-methylindazol-3-yl)carboxamido]-2,3,4,5-tetrahydrobenzo[f][1,4]oxazepin-5-one]	78%	99%	99%	100%	92%	2.2									45%	
NCCCn1cnc2cc(C(=O)Nc3nnc(-c4ccc5c(c4)OCO5)s3)ccc21 [Ligand L09, 1-(3-Amino-1-propyl)benzimidazole-5-carboxylic acid N-[2-(3,4-methylenedioxyphenyl)-1,3,4-thiadiazol-5-yl] amide]	100%	100%	100%	100%	97%	2.6	100%								39%	
CCSc1nnc(NC(=O)c2ccc3c(c2)ncn3CCCN)s1 [Ligand L12, 1-(3-Amino-1-propyl)benzimidazole-5-carboxylic acid N-(2-ethylthio-1,3,4-thiadiazol-5-yl) amide]	100%	100%	100%	100%	104%	2.5	100%								40%	
NCCCn1cc(-c2ccc(C(=O)Nc3nnc(-c4ccco4)s3)cc2)nn1 [Ligand L48]				100%				713 µM								
Cc1nc2cc(C(=O)Nc3nnc(-c4ncco4)s3)ccc2n1CCCN [Ligand L73, 1-(3-Amino-1-propyl)-2-methylbenzimidazole-5-carboxylic acid N-[5-(2-oxazolyl)-1,3,4-thiadiazol-2-yl] amide]									>80%	>60%	>90%	>95%	100%	>80%		<20%

The next lines start with results.

Palivizumab Bound [1, 9]	Tocilizumab Bound [3, 9]	Cetuximab Bound [4, 9]	Bevacizumab Bound [5, 11]	Bevacizumab Yield [5, 12]	Selectivity [6]	h-poly-IgG Bound [7, 9]	Kd [8]	h-poly-IgG Bound [7, 13]	Palivizumab Bound [1, 13]	Tocilizumab Bound [3, 13]	Cetuximab Bound [4, 13]	Bevacizumab Bound [5, 13]	Bevacizumab Yield [5, 13]	SMILES	HCP Bound [2, 10]	HCP Bound [2, 13]
74%			100%	84%	3.2									Cn1nc(NC(=O)c2ccc3c(c2)nnn3CCCN)c2ccccc21 [Ligand L06, 1-(3-Amino-1-propyl)benzotriazole-5-carboxylic acid N-(1-methylindazol-3-yl) amide]	31%	
91%	100%	100%	100%	100%	2.6	95%								NCCCn1cnc2cc(C(=O)Nc3nc4ccccc4o3)ccc21 [Ligand L08, 1-(3-Amino-1-propyl)benzimidazole-5-carboxylic acid N-(benzoxazol-2-yl) amide]	39%	
100%	100%	100%	100%	100%	2.2	100%								NCCCn1cnc2cc(C(=O)Nc3nc4ccccc4s3)ccc21 [Ligand L10, 1-(3-Amino-1-propyl)benzimidazole-5-carboxylic acid N-(benzothiazol-2-yl) amide]	45%	
61%	96%	98%	100%	99%	2.0	88%								Cc1cc(NC(=O)c2ccc3c(c2)ncn3CCCN)nn1-c1ccccc1 [Ligand L11, 1-(3-Amino-1-propyl)benzimidazole-5-carboxylic acid N-(5-methyl-1-phenylpyrazol-3-yl) amide]	51%	
